One may read the IC50 as the concentration at which inhibition is half-maximal. A higher IC50 goes with lower potency.

Where only a bound is given, the exact number is not on record here.

In one test the target is ROCK2 (Homo sapiens, UniProt O75116). Put plainly: ROCK2 kinase IC50 assay (CISBIO HTRF KinEASE-STK S2 kit). The settings on record: incubated at room temperature for 2 hours. The format is biochemical. On the procedure:
The kinase IC50 was determined by a commercialized CISBIO kinase detection kit, HTRF KinEASE-STK S2 kit (62ST2PEC). ROCK2 (01-119) employed in the reaction was purchased from Carna Biosciences.
Before the assay, the following working solutions as needed were formulated with corresponding reagents according to the instruction of the kinase detection kit: 1×kinase buffer, 5×STK-52 substrate working solution (1.5 μM) and 5×ATP working solution (1.5 μM), 5×ROCK2 kinase working solution, 4×Streptavidin-XL665 working solution, and 4×STK-Ab-Cryptate 2 detection solution. Then the assay was performed according to the following procedure.
A solution of a compound at a concentration of 10000 nM was prepared with the 1×kinase buffer containing 2.5% DMSO. Gradient dilution of the solution of the compound was performed with the kinase buffer containing DMSO, so as to obtain solutions of a test compound at 9 different concentrations. In addition to wells of test compounds, a positive well (containing all the reagents except the compound) and a negative well (containing all the reagents except the test compound and kinase) were set. Except for the control wells (positive and negative wells), a solution of a test compound (4 μL) was added to each of the reaction wells, and a solution of 2.5% DMSO was added to the control wells. Then the substrate ([…], 2 μL. 5×STK-S2 substrate working solution) was added to each of the reaction wells. The 5×ROCK2 kinase working solution (2 μL, containing 1.4 ng ROCK2 kinase) was added to each of the reaction wells except for the negative well, the volume of which was made up with the 1×kinase buffer (2 μL). The 5×ATP working solution (2 μL) was added to each of the reaction wells, and the mixtures were incubated at room temperature for 2 hours. After the kinase reaction was complete, the 4×Streptavidin-XL665 working solution was added to each of the reaction wells, the solutions were mixed, followed by immediate addition of the 4×STK-Ab-Cryptate 2 detection solution (5 μL), and the mixtures were incubated at room temperature for 1 hour. The fluorescence signal was read on ENVISION (Perkinelmer) (excitation wavelength: 320 nm, and emission wavelength: 665 nm and 615 nm). The inhibitory rate in each well was calculated based on the fluorescence intensity value: ER (Emission Ratio)=(fluorescence intensity at 665 nm/fluorescence intensity at 615 nm); inhibitory rate=(ERpositive−ERtest compound)/(ERpositive−ERnegative)*100%. Curves were plotted and fitted to obtain the median inhibitory concentration (IC50) of each teat compound with the PRISM 5.0 software.
For orientation: In TR-FRET formats the signal depends on donor and acceptor labels being close together.

Another test addresses ROCK1 (Homo sapiens (Human), UniProt Q13464). Put plainly: ROCK1 kinase IC50 assay (biological test method similar to the ROCK2 assay). The format is biochemical. Summed up: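 Compound dilution series (9 concentrations, top solution 10000 nM, DMSO-containing buffer) incubated 2 h at room temperature with kinase, STK-S2 substrate and ATP (5× working solutions of 1.5 µM each). Phosphorylation detected by HTRF (665/615 nm emission ratio) after 1 h; inhibition relative to full-reaction and kinase-free wells, fitted for IC50.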

Chain of ROCK1 (Q13464 whole entry, species assumed): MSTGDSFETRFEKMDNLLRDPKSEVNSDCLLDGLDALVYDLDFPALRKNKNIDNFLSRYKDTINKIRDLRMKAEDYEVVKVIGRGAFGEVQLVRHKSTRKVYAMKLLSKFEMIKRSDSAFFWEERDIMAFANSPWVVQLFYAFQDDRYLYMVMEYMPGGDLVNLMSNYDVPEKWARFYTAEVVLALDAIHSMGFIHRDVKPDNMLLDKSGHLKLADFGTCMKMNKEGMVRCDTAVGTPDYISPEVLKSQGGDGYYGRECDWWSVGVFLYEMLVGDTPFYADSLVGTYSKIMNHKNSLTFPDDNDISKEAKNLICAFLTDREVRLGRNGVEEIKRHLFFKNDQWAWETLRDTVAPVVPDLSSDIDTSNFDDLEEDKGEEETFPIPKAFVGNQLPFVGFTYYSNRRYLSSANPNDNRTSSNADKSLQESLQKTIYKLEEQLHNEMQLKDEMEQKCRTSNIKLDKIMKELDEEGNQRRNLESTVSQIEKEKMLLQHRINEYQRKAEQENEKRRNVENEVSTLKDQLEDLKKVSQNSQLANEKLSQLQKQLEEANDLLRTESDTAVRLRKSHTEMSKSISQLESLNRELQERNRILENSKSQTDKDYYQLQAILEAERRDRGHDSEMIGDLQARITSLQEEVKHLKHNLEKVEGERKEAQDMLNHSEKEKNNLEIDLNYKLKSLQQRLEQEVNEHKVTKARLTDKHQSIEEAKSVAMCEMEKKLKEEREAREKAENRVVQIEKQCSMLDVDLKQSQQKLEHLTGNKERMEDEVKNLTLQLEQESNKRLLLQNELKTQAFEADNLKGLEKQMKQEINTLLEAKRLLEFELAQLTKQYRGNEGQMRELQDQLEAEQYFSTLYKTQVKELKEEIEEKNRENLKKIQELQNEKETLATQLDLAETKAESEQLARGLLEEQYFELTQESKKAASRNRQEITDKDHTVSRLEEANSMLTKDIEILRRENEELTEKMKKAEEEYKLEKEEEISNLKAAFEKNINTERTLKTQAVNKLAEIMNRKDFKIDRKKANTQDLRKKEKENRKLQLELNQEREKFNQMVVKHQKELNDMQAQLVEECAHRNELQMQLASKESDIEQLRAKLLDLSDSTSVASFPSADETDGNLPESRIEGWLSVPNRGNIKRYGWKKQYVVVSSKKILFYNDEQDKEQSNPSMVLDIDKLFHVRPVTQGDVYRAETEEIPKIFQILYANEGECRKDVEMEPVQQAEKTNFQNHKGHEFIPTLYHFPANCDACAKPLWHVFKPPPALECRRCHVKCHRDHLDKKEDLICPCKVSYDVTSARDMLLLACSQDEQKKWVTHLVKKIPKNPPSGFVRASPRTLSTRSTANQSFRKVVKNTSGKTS

As for “5-(4-((4-(1H-pyrazol-4- yl)phenyl)amino)pyrimidin- 2-yl)-N,N-diethyl-1H- indole-2-carboxamide [TDI01408]”, the values for the IC50 on ROCK2 and at ROCK1 were 400 nM and 5630 nM, respectively.

As to `CC(C)(C)OC(=O)n1ncc2cc(NC(=O)c3cc4ccc(-c5nccc(Nc6ccc7[nH]ncc7c6)n5)cc4[nH]3)ccc21` [TDI01248, tert-butyl 5-(6-(4-((1H-indazol-5-yl)amino)-pyrimidin-2-yl)-1H-indole-2-carboxamido)-1H-indazole-1-carboxylate], on ROCK2, the IC50 is 500 nM.

With `CN1CCN(C2CCN(C(=O)c3cc4ccc(-c5nccc(Nc6ccc7[nH]ncc7c6)n5)cc4[nH]3)CC2)CC1` [TDI01319, (6-(4-((1H-indazol-5-yl)amino)-pyrimidin-2-yl)-1H-indol-2-yl)(4-(4-methyl-piperazin-1-yl)piperidin-1-yl)methanone], the IC50 against ROCK2 was 258 nM; at ROCK1 it was more than 10000 nM. Turning to `CN(C)C(=O)c1cc2ccc(-c3nccc(Nc4ccc5[nH]ncc5c4)n3)cc2[nH]1` [TDI01353, 6-(4-((1H-indazol-5-yl)amino)-pyrimidin-2-yl)-N,N-dimethyl-1H-indole-2-carboxamide], it took 307 nM to reach half-maximal inhibition on ROCK2 (IC50). With `O=C(c1cc2ccc(-c3nccc(Nc4ccc5[nH]ncc5c4)n3)cc2[nH]1)N1CCC2(CCNCC2)CC1` [TDI01360, (6-(4-((1H-indazol-5-yl)amino)-pyrimidin-2-yl)-1H-indol-2-yl)(3.9-diazaspiro[5.5]undecan-3-yl)methanone], the IC50 was 26 nM on ROCK2 and 1470 nM against ROCK1. On the same counts, the results for `O=C(c1cc2ccc(-c3nccc(Nc4ccc(-c5cn[nH]c5)cc4)n3)cc2[nH]1)N1CC2(CNC2)C1` [TDI01369, (6-(4-((4-(1H-pyrazol-4-yl)phenyl)-amino)-pyrimidin-2-yl)-1H-indol-2-yl)(2,6-diazaspiro[3.3]heptan-2-yl)methanone] are 266 nM and 6790 nM. For `O=C(Nc1ccncc1Cl)c1cc2ccc(-c3nccc(Nc4ccc5[nH]ncc5c4)n3)cc2s1` [TDI01372, 6-(4-((1H-indazol-5-yl)amino)-pyrimidin-2-yl)-N-(3-chloropyridin-4-yl)benzo[b]-thiophene-2-carboxamide], the IC50 at ROCK2 is 123 nM; on ROCK1 it was more than 10000 nM. Take `O=C(Nc1ccncc1Cl)N1Cc2ccc(-c3nccc(Nc4ccc5[nH]ncc5c4)n3)cc2C1` [TDI01374, 5-(4-((1H-indazol-5-yl)amino)pyrimidin-2-yl)-N-(3-chloropyridin-4-yl)isoindoline-2-carboxamide]: the results for the IC50 on ROCK2 and against ROCK1 were 64 nM and more than 10000 nM, respectively. The compound `COC(=O)C(Cc1c[nH]cn1)NC(=O)c1cc2ccc(-c3nccc(Nc4ccc5[nH]ncc5c4)n3)cc2[nH]1` (centres unmarked) [TDI01385, methyl (6-(4-((1H-indazol-5-yl)amino)-pyrimidin-2-yl)-1H-indole-2-carbonyl)-histidinate] came in with a concentration for half-maximal inhibition (IC50) against ROCK2 of 107 nM.

In the case of `O=C(NC1CCCN(C2CCOCC2)C1)c1cc2ccc(-c3nccc(Nc4ccc5[nH]ncc5c4)n3)cc2[nH]1` (centres unmarked) [TDI01390, 6-(4-((1H-indazol-5-yl)amino)-pyrimidin-2-yl)-N-(1-(tetrahydro-2H-pyran-4-yl)piperidin-3-yl)-1H-indole-2-carboxamide], the IC50 was 18 nM against ROCK2 and 456 nM against ROCK1. On the same counts, the results for `CN(C(=O)c1cc2ccc(-c3nccc(Nc4ccc5[nH]ncc5c4)n3)cc2s1)C1CCOC1` (centres unmarked) [TDI01392, 6-(4-((1H-indazol-5-yl)amino)pyrimidin-2-yl)-N-methyl-N-(tetrahydrofuran-3-yl)ben-zo[b]thiophene-2-carboxamide] are 172 nM and more than 10000 nM.

`O=C(Nc1ccncc1F)c1cc2ccc(-c3nccc(Nc4ccc5[nH]ncc5c4)n3)cc2[nH]1` [TDI01394, 6-(4-((1H-indazol-5-yl)amino)pyrimidin-2-yl)-N-(3-fluoropyridin-4-yl)-1H-indole-2-carboxamide]: the IC50 against ROCK2 was 28 nM; against ROCK1, more than 10000 nM. Turning to `O=C(Oc1ccccc1)N1Cc2ccc(-c3nccc(Nc4ccc5[nH]ncc5c4)n3)cc2C1` [TDI01403, phenyl 5-(4-((1H-indazol-5-yl)amino)pyrimidin-2-yl)isoindoline-2-caiboxylate], the IC50 turned out to be 110 nM at ROCK2 and 3000 nM at ROCK1. The corresponding values for `O=C(c1cc2ccc(-c3nc(Nc4ccc5[nH]ncc5c4)c4sccc4n3)cc2[nH]1)N1CCC2(CCNCC2)CC1` [TDI01404, (6-(4-((1H-indazol-5-yl)amino)-thieno[3,2-d]pyrimidin-2-yl)-1H-indol-2-yl)(3,9-diazaspiro[5.5]undecan-3-yl)methanone] are 35 nM and 1520 nM. The corresponding values for `CNC(=O)c1cc2ccc(-c3nc(Nc4ccc5[nH]ncc5c4)c4sccc4n3)cc2[nH]1` [TDI01405, 6-(4-((1H-indazol-5-yl)amino)-thieno[3,2-d]pyrimidin-2-yl)-N-methyl-1H-indole-2-carboxamide] are 160 nM and 4060 nM. The compound `CN(C)C(=O)c1cc2ccc(-c3nc(Nc4ccc5[nH]ncc5c4)c4sccc4n3)cc2[nH]1` [TDI01406, 6-(4-((1H-indazol-5-yl)amino)-thieno[3,2-d]pyrimidin-2-yl)-N,N-dimethyl-1H-indole-2-carboxamide] registered an IC50 at ROCK2 of 285 nM. Regarding `CN(C(=O)c1cc2ccc(-c3nccc(Nc4ccc(-c5cn[nH]c5)cc4)n3)cc2[nH]1)C1CCOC1` (centres unmarked) [TDI01419, 6-(4-((4-(1H-pyrazol-4-yl)phenyl)amino)pyrimidin-2-yl)-N-methyl-N-(tetrahydrofuran-3-yl)-1H-indole-2-carboxamide], the IC50 against ROCK2 was 385 nM; on ROCK1, more than 10000 nM. At ROCK2, `O=C(C1CC(F)(F)C1)N1CCc2ccc(-c3nccc(Nc4ccc5[nH]ncc5c4)n3)cc2C1` [TDI01682, (7-(4-((1H-indazol-5-yl)amino)pyrimidin-2-yl)-3,4-dihydroisoquinolin-2(1H)-yl)(3,3-difluorocyclobutyl)methanone] came in with an IC50 of 360 nM. Consider `Cn1c(-n2ccnc2)cc2ccc(-c3nccc(Nc4ccc(-c5cn[nH]c5)c(F)c4)n3)cc21` [TDI01684, 2-(2-(1H-imidazol-1-yl)-1-methyl-1H-indol-6-yl)-N-(3-fluoro-4-(1H-pyrazol-4-yl)phenyl)pyrimidin-4-amine], for which it took 171 nM to reach half-maximal inhibition against ROCK2 (IC50). Regarding `COc1cc(Nc2ccc3[nH]ncc3c2)nc(-c2ccc3cc(C(=O)Nc4ccnnc4)[nH]c3c2)n1` [TDI01801, 6-(4-((1H-indazol-5-yl)amino)-6-methoxy-pyrimidin-2-yl)-N-(pyridazin-4-yl)-1H-indole-2-carboxamide], the IC50 at ROCK2 worked out at 68 nM. This IC50 is about 2.5-fold lower than that of the compound before. Take `O=C(NC1CCN(c2ccncc2)CC1)c1cc2ccc(-c3nccc(Nc4ccc5[nH]ncc5c4)n3)cc2[nH]1` [TDI01814, 6-(4-((1H-indazol-5-yl)amino)-pyrimidin-2-yl)-N-(1-(pyridin-4-yl)piperidin-4-yl)-1H-indole-2-carboxamide]: the IC50 against ROCK2 is 18 nM. The same measure, in the same setting: with `C[C@@H](NC(=O)c1cc2ccc(-c3nccc(Nc4ccc5[nH]ncc5c4)n3)cc2[nH]1)c1ccncc1` [TDI01849, (R)-6-(4-((1H-indazol-5-yl)amino)-pyrimpidin-2-yl)-N-(1-(pyridin-4-yl)ethyl)-1H-indole-2-carboxamide] the figure was 132 nM. Same read-out and setting: the value for `CC(C)NC(=O)c1cc2ccc(-c3nc(Nc4ccc(-c5cn[nH]c5)cc4)cc(OCCN(C)C)n3)cc2[nH]1` [TDI01865, 6-(4-((4-(1H-pyrazol-4-yl)phenyl)amino)-6-(2-(dimethylami-no)ethoxy)pyrimidin-2-yl)-N-isopropyl-1H-indole-2-carboxamide] was 400 nM. Same read-out and setting: the value for `O=C(NC1CCCC(N2CCOCC2)C1)c1cc2ccc(-c3nccc(Nc4ccc(-c5cn[nH]c5)cc4)n3)cc2[nH]1` (centres unmarked) [TDI01878, 6-(4-((4-(1H-pyrazol-4-yl)phenyl)-amino)-pyrimidin-2-yl)-N-(3-morpholino-cyclohexyl)-1H-indole-2-carboxamide] was 9 nM; that for `Cc1cc2ccc(-c3nccc(Nc4ccc5[nH]ncc5c4)n3)cc2[nH]1` [TDI01901, N-(2-(2-methyl-1H-indol-6-yl)pyrimidin-4-yl)-1H-indazol-5-amine] was 387 nM.
